Reference: PMC5708646, “Single-molecule study of full-length NaChBac by planar lipid bilayer recording” (PLoS ONE, 2017)

Biological target: T1, NaChBac (Halalkalibacterium halodurans, UniProt Q9KCR8)
T1 construct: gene BH1501
T1 sequence (Q9KCR8 1-274): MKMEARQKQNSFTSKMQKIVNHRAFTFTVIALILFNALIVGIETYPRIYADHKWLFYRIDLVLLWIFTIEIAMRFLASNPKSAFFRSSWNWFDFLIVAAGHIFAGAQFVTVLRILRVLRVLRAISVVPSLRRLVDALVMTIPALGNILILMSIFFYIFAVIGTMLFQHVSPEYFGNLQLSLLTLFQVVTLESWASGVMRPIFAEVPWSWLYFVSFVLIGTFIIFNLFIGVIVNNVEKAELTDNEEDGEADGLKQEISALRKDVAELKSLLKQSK
Test: planar lipid bilayer current recording, reconstituted purified channel
Assay type: biochemical
Conditions: block from the intracellular side, reversible on washout; concentration not printed for this test; step from -120 to +60 mV; POPE/POPG bilayer; pH 7.4

`CC[N+](CC)(CC)CC(=O)Nc1c(C)cccc1C` [lidocaine N-ethyl bromide] was tested, and the “planar lipid bilayer current recording, reconstituted purified channel” value was “It was observed that the current completely dimished (red trace of Fig 3C)”.
